Test results reported in US11459293B2, “Compositions and methods of making expanded hematopoietic stem cells using derivatives of fluorene” (ImmuneBridge Inc., priority 2017, dated 2022).

Key:
[1] = tested on: hematopoietic stem cells derived from cord blood; experiment: Enhancement of hematopoietic stem cells from cord blood cultured with Compound 1.008, flow cytometry up to 19 days (Example 34); format: cell-based
Experimental: A frozen cord blood sample was thawed and gradually brought to room temperature. Thawed cord blood was incubated in an in vitro culture media of Alpha MEM without phenol red, 10% (v/v) heat inactivated fetal bovine serum (FBS). Four samples were tested: Base conditions, +SF Conditions, +1.008 Conditions, and +1.008/+ER conditions. The components included in each condition is described in Table 4. Each condition tested also included an antibiotic solution that includes penicillin, streptomycin, and amphotericin B to avoid contamination.
(§1) Cultures were incubated at 3% oxygen (controlled by nitrogen) and 5% CO2.
Small molecule components were added separately and fresh each time the media needs to be refreshed. Cytokines can be stored together. Media renewal should occur at least every few days.
On the days indicated varying amounts of the cell culture was removed for data analysis (flow cytometry using a BD FACS ARIA II) and to avoid overcrowding of cells. The culture volume was replenished with fresh media according to the conditions tested. The data reported accounts for the dilution factor introduced in this procedure.

[2] = tested on: CD34+ cells from non-mobilized peripheral blood; experiment: Long-term (21 days) expansion with Compound 1.010, non-mobilized peripheral blood (Example 36); format: cell-based, human; details: Compound 1.010 8 μM
Experimental: CD34+ cells from non-mobilized peripheral blood were purchased from STEMCELL Technologies. Primary human CD34+ cells were isolated from blood samples using positive immunomagnetic separation techniques.
Cryspreserved CD34+ cell samples from each source were thawed and gradually brought to room temperature. Samples were washed then placed in overnight culture in StemSpan with 100 ng/ml each of FLT3L, TPO, SCF, and IL-6.
as §1
Twenty-four hours later (day 1), cells were counted and immunophenotyped (flow cytometry on an Invitrogen Attune NxT cytometer). […] Exact cell numbers dispensed per condition were quantified for later calculations of fold change from day 1.
Wells were analyzed at days 7 and 10, flasks were analyzed at 14 and 21 days of incubation. Cell numbers and phenotypes were quantified with flow cytometry. […] An additional seven days later (day 21 of culture), cell numbers and phenotypes were again quantified with flow cytometry. Cell numbers calculated at day 21 account for the passaging of the cells.
Conditions in 96-well plates were prepared in quadruplicate; conditions in flasks were prepared in duplicate. On the above-indicated number of days in culture, cells from wells or flasks were collected and phenotypes were analyzed (flow cytometry on an Invitrogen Attune NxT cytometer).

[3] = tested on: CD34+ cells isolated from donor peripheral blood (non-mobilized); experiment: Enhancement of hematopoietic stem cells from non-mobilized peripheral blood, flow cytometry, fold change days 2 to 7 (Example 33); format: cell-based; details: 8 μM sample compound, normalized fold change days 2 to 7, 3% oxygen
Experimental: CD34+ cells were isolated from donor peripheral blood. Standard buffy coat separation using ficoll paque was performed. Cells were pelleted and incubated with unlabeled CD64 antibody. Cells then underwent negative depletion using biotinylated CD2, CD3, CD4, CD5, CD8, CD11b, CD14, CD16, CD19, CD20, CD45RA, CD56, CD235 (in some examples CD15, CD25 and other lineage specific antibodies may also be used). Cells which bind these antibodies are depleted using streptavidin beads. The enriched progenitor pool then undergoes cell sorting for CD34+.
Isolated CD34+ cells were incubated in an in vitro culture media of Alpha MEM without phenol red with 10% (v/v) heat inactivated fetal bovine serum (FBS). When testing compounds of Formula I, two internal controls were used: a positive control (+SF conditions) and a baseline control (i.e. basic conditions (“cytokines only”)). The media components and concentrations used for the compounds tested are described in Table 2. The culture also included an antibiotic solution that includes penicillin, streptomycin, and amphotericin B to avoid contamination. Controls were included because the amount of expansion in samples obtained varies from individual to individual. […]
Table 3, below, summarizes the relative expansive effect of Compound 1.001 to 1.023 (sample compounds) at the indicated concentration. […] It is calculated as shown below: […]

CC(C)(C)C(=O)Nc1ccc2c(c1)C(=O)c1cc(N)ccc1-2 [Compound 1.008, N-(7-amino-9-oxo-9H-fluoren-2-yl)pivalamide]
maintenance and expansion of hematopoietic stem cells in culture ([1]; +1.008 Conditions (250 nM), 19 days in culture): maintained and continue to expand | total number of CD34+, CD34+/CD133+, CD34+/CD133+/CD90+ and CD34+/CD133+/CD90+/CD38 low/− cells (flow cytometric cell counts) ([1]; FIG. 24B-E, versus Base and +SF conditions): increase | increase in CD34+ cells from day 2 ([1]; after 19 days in culture, Compound 1.008 250 nM, 3% oxygen, FIG. 25B): greater than 50 fold | increase in CD34+/CD133+ cells from day 2 ([1]; after 19 days in culture, Compound 1.008 250 nM, 3% oxygen, FIG. 25C): greater than 50 fold | increase in CD34+/CD133+/CD90+ cells from day 2 ([1]; after 19 days in culture, Compound 1.008 250 nM, 3% oxygen, FIG. 25D): ~20 fold | increase in CD34+/CD133+/CD90+/CD38low/− cells from day 2 ([1]; after 19 days in culture, Compound 1.008 250 nM, 3% oxygen, FIG. 25E): > 12 fold

CC(C)(C)C(=O)Nc1ccc2c(c1)C(O)c1ccccc1-2 (centres unmarked) [Compound 1.010]
expansion of CD34+ cells ([2]; fold change from day 1, up to 21 days in culture, 3% oxygen, FIG. 54B): greater than nine-fold | expansion compared with cytokines alone ([2]; up to 21 days): far surpasses

CC(C)(C)C(=O)Nc1ccc2c(c1)C(=O)CC2 [Compound 1.019]
CD90 effect (relative expansive effect on CD34+/CD133+/CD90+ cells) [3]: ++ (0.2 ≤ x < 0.55) | CD133 effect (relative expansive effect on CD34+/CD133+ cells) [3]: ++ (0.2 ≤ x < 0.55)

ER50891 [reference compound]
fold increase levels on addition of ER50891 to +1.008 conditions ([1]; ER50891 100 nM with Compound 1.008 250 nM, 19 days): even further improved
